The values below come from patent US8809368B2, “Compounds affecting gap junction activity” (Kansas State University Research Foundation, priority 2006, dated 2014).

For one data set, the system named is SW620 colon cancer cells. Description: Colony growth of SW620 colon cancer cells. The class given is cell-based. Here is the method:
However, PQ3 has an opposite effect on mammary cancer cell lines. […] A summary of PQ-mediated GJIC activity and colony growth in breast and colon cancer cells is presented in Tables 1, 2, and 3, as well as FIGS. 10-13. In FIG. 10, SW620 cells were dosed for 24 hours with PQ1 at 100, 200, 300, and 500 nM. The gap junction activity was measured as a percent of control, as previously described. It was seen that all concentrations on PQ1 increased the gap junction activity in SW620 colon cancer cells as compared to the control. In FIG. 11, the effect of PQ1 on the expression of PKCγ was studied at concentrations of 100, 200, 300 and 500 nM PQ1 for 24 hours. It is seen in FIG. 11 that PQ1 has no effect on the expression of PKCγ at the levels tested. In FIGS. 12 and 13, the effect of PQ1 on the colony growth of SW620 colon cancer cells was measured with 1-100 nM PQ1 (FIG. 12) and 10 uM PQ1 (FIG. 13).
Colony Growth Assay: T47D human breast cancer cells were treated with PQ1. Base agar plates were prepared containing 0.8% agar and 0.4% agar in Ham's F12. Cells (5×10^4 cells/33 mm2 well) were suspended in 100 μl of Ham's F12 with 0.4% agar and plated. These plates were maintained at 37° C. for 7 days and examined for the presence of colonies. Individual colonies of 40 um or greater were examined.

The test system of another data set is MEC. Description: MTT assay, cell viability, MEC. The class given is cell-based, human. To be noted: for cell viability compared to control: 24 hours. The method, then: The cytotoxicity of PQ1 in MEC and T47D cells using MTT assay was also determined. Cells were treated with 10, 100, 200, and 500 nM PQ1 for 24 hours. MTT assay was performed according to the manufacture's recommendations. A 200 nM PQ1 has 67% cell viability compared to controls (FIG. 16). Treatments of 100 and 200 nM PQ1 have 95% and 103% MEC cell viability compared to control. However, both MEC and T47D cells decrease cell viability to 50% and 65% at 1 μM PQ1, respectively. Thus, 100-200 nM of PQ1 is sufficient to enhance GJIC activity.
MTT assay. MTT (3-(4,5-dimethyl thiazol-2-yl)-2,5-diphenyl tetrazolium bromide) assay was performed with adherent cell cultures using a culture medium free of phenol red and of serum. Solution containing MTT was metabolized by the cells (incubation period 3 hours). MTT is a tetrazolium salt (yellowish) that is cleaved to formazan crystals by the succinate dehydrogenase system which belongs to the mitochondrial respiratory chain, and is only active in viable cells. The mitochondrial succinate dehydrogenase reduces the MTT crystals into purple formazan in the presence of an electron coupling reagent. The more viable cells will be presented in a well, the more formazan dye will be produced. After solubilization of the MTT crystals with the solubilization solution MTT, the amount of dye will be measured spectrophotometrically at 540 nm.

In the next data set the test system is T47D cells. Description: Transepithelial electrical resistance (TEER), T47D monolayers. The class given is cell-based, human. The note with it: 100, 200 or 500 nM, 48 hours, compared to control. The method, then:
T47D cells were treated with 0, 100, 200, and 500 nM PQ1 for 48 hours. TEER assay was performed as described herein. TEER values of each treatment in KΩ/cm^2 were converted to relative percent of control.
Measurement of transepithelial electrical resistance. Cells were grown to 100% confluency on a 12-well transwell (BD Biosciences, San Jose, Calif.) and treated with 0, 100, 200, and 500 nM PQ1 for 48 hours. Transepithelial electrical resistance (TEER) of the T47D monolayers was measured by a high-precision. Resulting voltages were recorded with the aid of a differential amplifier with a high input resistance. Data were corrected for well area (given in Ω·cm^2).

Another data set concerns Cx26. Description: Western blot of Cx26 in T47D cells. To be noted: 10, 100, 200 and 500 nM, 24 hours. The class given is cell-based, human. The method, then: (§1) T47D cells were dosed with PQ1 for 24 hours. The Western blot analysis was performed as described in Materials and Methods. Whole cell extract was analyzed for Cx 43, Cx32, and Cx26. Experiment was performed at least three times.
(§2) Furthermore, whole cell extract of PQ1 treatment was analyzed for the changes in gap junctional proteins, connexins. Cells were treated with 10, 100, 200, and 500 nM PQ1 for 24 hours. Western blot analysis was performed against Cx26, Cx32, and Cx43 (FIG. 17). […] Anti-tubulin was used as a loading control.
(§3) Western Blot Analysis. Cells were grown in serum supplemented RPMI media until they were 90% confluent in 75 cm^2 flasks. Cells were kept in starving media containing phenol red-free DMEM with 5% charcoal dextran stripped serum, overnight. Cells were dosed with 0, 10, 100, 200 and 500 nM of PQ1 for 24 hours. Cells were washed three times with cold PBS and then were harvested using lysis buffer (20 mM Tris pH 7.5, 0.5 mM EDTA, 0.5 mM EGTA, 0.5% Triton X-100) with 1:1000 dilution of protease inhibitors (Sigma-Aldrich, Saint Louis, Mo.). Cell lysate was sonicated and centrifuged at 13,000 rpm for 30 minutes at 4° C. […] Western blots were detected by enhanced chemiluminescence detection reagents (Pierce, Rockford, Ill., USA).
For orientation: A western blot detects proteins with antibodies after separation by electrophoresis.

For the next data set, the system named is Cx32. Nature of the data set: Western blot of Cx32 in T47D cells. To be noted: 10, 100, 200 and 500 nM, 24 hours. The class given is cell-based, human. The method, then: as §1, §2, §3

As a reminder, the cell viability is a per cent measure of how many cells are alive, often set against a control.

As for `COc1cc(NCCCN)c2nccc(C)c2c1Oc1cccc(C(F)(F)F)c1.O=C(O)CCC(=O)O` [PQ1, 6-Methoxy-8-[(3-aminopropyl)amino]-4-methyl-5-(3-trifluoromethylphenyloxy) quinoline succinic acid], the colony growth result was “completely inhibits” in the data set on SW620 colon cancer cells (10 uM) and “no effect” in the data set with SW620 colon cancer cells (1-100 nM). Besides, the results for the “cell viability compared to control” value in the data set on MEC (100 nM) and in the data set with MEC (200 nM) were 95% and 103%, respectively. The compound also showed a cell viability with MEC (1 μM) of 50%. Further, the “tight junction ion permeability by TEER” value in the data set with T47D cells is “no significant effect”. The Cx26 expression result in the data set on Cx26 is “no effect”. Also, in the data set on Cx32, the Cx32 expression result was “no effect”.
